Measurements taken from paper PMC4515243, “Phase 1 pharmacokinetic study of the oral pan-AKT inhibitor MK-2206 in Japanese patients with advanced solid tumors” (Cancer Chemotherapy and Pharmacology, 2015).
Where two headings read alike, the source gives them in different places.

What was measured:
AKT3 [1] = test system: AKT3; set-up: method as in ref 3 = [3]; 3. Yan L (2009) MK-2206: a potent oral allosteric AKT inhibitor [abstract #DDT01-1]. In: Proceedings of the 100th annual meeting of the American association for cancer research, Denver, CO, 18–22 Apr; conditions: purified recombinant AKT3, in vitro; cited from earlier work
[2] = plasma pharmacokinetics in Japanese patients (HPLC-MS/MS); assay type: in vivo, human; conditions: for AUC(0-t) / concentration at 48 h / Cmax / Tmax / half-life: human, plasma, oral; for half-life: read-out: Apparent terminal t½ (converted)
Description: Blood samples for the QOD dosing schedule were collected for PK analyses just before and 2, 4, 6, 10, 24, and 48 h after MK-2206 dosing on days 1 and 27 of Cycle 1. After the final dose of MK-2206 during Cycle 1, blood samples were drawn 96, 144, and 192 h postdose during the 1-week rest period. Samples were also drawn directly before MK-2206 treatment on days 7, 15, and 21. Blood samples for the QW dosing schedule were collected for PK analyses just before and 2, 4, 6, 10, 24, 48, and 96 h after MK-2206 dosing on days 1 and 22 of Cycle 1. After the final dose of MK-2206 in Cycle 1, blood samples were drawn 168 and 240 h postdose during the 1-week rest period. Samples were also drawn directly before MK-2206 treatment on days 8 and 15. The blood samples were centrifuged, and the plasma was separated and stored at −20 °C. The plasma concentrations were analyzed using high-performance liquid chromatography with tandem mass spectroscopy (HPLC–MS/MS) at Merck Research Labs, West Point, PA.
PK differences were observed after exposure to MK-2206 in Japanese patients, compared with non-Japanese patients. Consequently, the PK data were analyzed using t tests and nonparametric Wilcoxon–Mann–Whitney tests because of potential differences in variance. […] No differences in Tmax were observed.

AKT3 [3] = test system: AKT3; set-up: method as in ref 4 = [4]; 4. Lu W, Defeo-Jones D, Davis L et al (2009) In vitro and in vivo antitumor activities of MK-2206, a new allosteric Akt inhibitor [abstract #3714]. In: Proceedings of the 100th annual meeting of the A; conditions: several cancer cell lines; cited from earlier work
AKT pathway = test system: AKT pathway; set-up: method as in PMID 25239610; conditions: continuous QOD and intermittent QW dosing, serially obtained tumor and platelet-rich plasma; cited from earlier work
[4] = test system: in vivo preclinical models; set-up: method as in PMID 20571069; conditions: single agent; cited from earlier work
AKT1 kinase activity = target: AKT1 kinase activity; set-up: method as in ref 4 = [4]; 4. Lu W, Defeo-Jones D, Davis L et al (2009) In vitro and in vivo antitumor activities of MK-2206, a new allosteric Akt inhibitor [abstract #3714]. In: Proceedings of the 100th annual meeting of the A; conditions: several cancer cell lines; cited from earlier work
AKT1 = test system: AKT1; set-up: method as in ref 3 = [3]; 3. Yan L (2009) MK-2206: a potent oral allosteric AKT inhibitor [abstract #DDT01-1]. In: Proceedings of the 100th annual meeting of the American association for cancer research, Denver, CO, 18–22 Apr; conditions: purified recombinant AKT1, in vitro; cited from earlier work
[5] = test system: non-Japanese patients with advanced solid tumors; conditions: cited from earlier work
AKT2 [6] = test system: AKT2; set-up: method as in ref 3 = [3]; 3. Yan L (2009) MK-2206: a potent oral allosteric AKT inhibitor [abstract #DDT01-1]. In: Proceedings of the 100th annual meeting of the American association for cancer research, Denver, CO, 18–22 Apr; conditions: purified recombinant AKT2, in vitro; cited from earlier work
advanced solid tumors = test: tumor response according to RECIST version 1.0 in Japanese patients; assay type: in vivo, human
Description: The anti-tumor activity was evaluated at baseline and every 6 weeks according to the Response Evaluation Criteria In Solid Tumors (RECIST), version 1.0.

[7] = non-Japanese patients; cited from earlier work
AKT2 [8] = test system: AKT2; set-up: method as in ref 4 = [4]; 4. Lu W, Defeo-Jones D, Davis L et al (2009) In vitro and in vivo antitumor activities of MK-2206, a new allosteric Akt inhibitor [abstract #3714]. In: Proceedings of the 100th annual meeting of the A; conditions: several cancer cell lines; cited from earlier work

For `NC1(c2ccc(-c3nc4ccn5c(=O)[nH]nc5c4cc3-c3ccccc3)cc2)CCC1` [MK-2206], the IC50 (AKT3 [1]) is listed as 65 nM, the “Tmax First dose” value ([2]; 45 mg QOD (n = 3), Day 1, median (min–max)) is listed as 4.0 (4.0–6.0) h and the “Apparent terminal t½” value ([2]; 45 mg QOD (n = 3), harmonic mean ± pseudo SD) is listed as 79.6 ± 8.5 h. The “GMR C48-h” value ([2]; 45 mg QOD, geometric mean ratio CDay27/CDay1) was 5.02, the “Tmax Last dose” value ([2]; 60 mg QOD (n = 9), Day 27, median (min–max)) was 6.0 (2.0–10.0) h and the “GMR C48-h” value ([2]; 60 mg QOD, geometric mean ratio CDay27/CDay1) was 3.68. The “GMR C48-h” value ([2]; 135 mg QW, geometric mean ratio CDay22/CDay1) was 1.25, the “GMR C48-h” value ([2]; 200 mg QW, geometric mean ratio CDay22/CDay1) was 1.78 and the “mean exposure values (Cmax and AUC), Japanese versus non-Japanese patients” value ([2]; 45- and 60-mg QOD and 200-mg QW cohorts, higher) was 1.4–1.9 fold. For the same compound, the “mean exposure values (Cmax and AUC), Japanese versus non-Japanese patients” value ([2]; 135-mg QW cohort, lower) was 0.7–1.3, the “AUC, Cmax and Ctrough versus non-Japanese patients” value ([2]; 200-mg QW cohort, P < 0.05) was “significantly higher” and the AUC(0-t) ([2]; 45 mg, 45 mg QOD (n = 3), Day 1, AUC0–48h, geometric mean (coefficient of variation), read-out: AUCt First dose) was 1.85 µM·h. For the same compound, the concentration at 48 h ([2]; 45 mg, 45 mg QOD (n = 3), Day 1, geometric mean (coefficient of variation), read-out: C48-h First dose) was 28.8 nM, the Cmax ([2]; 45 mg, 45 mg QOD (n = 3), Day 1, geometric mean (coefficient of variation), read-out: Cmax First dose) was 60.5 nM and the AUC(0-t) ([2]; 45 mg, 45 mg QOD (n = 3), Day 27, AUC0–48h, geometric mean (coefficient of variation), read-out: AUCt Last dose) was 8.49 µM·h. For the same compound, the concentration at 48 h ([2]; 45 mg, 45 mg QOD (n = 3), Day 27, geometric mean (coefficient of variation), read-out: C48-h Last dose) was 144 nM, the Cmax ([2]; 45 mg, 45 mg QOD (n = 3), Day 27, geometric mean (coefficient of variation), read-out: Cmax Last dose) was 214 nM and the AUC(0-t) ([2]; 60 mg, 60 mg QOD (n = 9), Day 1, AUC0–48h, geometric mean (coefficient of variation), read-out: AUCt First dose) was 2.72 µM·h. The concentration at 48 h ([2]; 60 mg, 60 mg QOD (n = 9), Day 1, geometric mean (coefficient of variation), read-out: C48-h First dose) was 40.6 nM, the Cmax ([2]; 60 mg, 60 mg QOD (n = 9), Day 1, geometric mean (coefficient of variation), read-out: Cmax First dose) was 95.9 nM and the AUC(0-t) ([2]; 60 mg, 60 mg QOD (n = 9), Day 27, AUC0–48h, geometric mean (coefficient of variation), read-out: AUCt Last dose) was 9.69 µM·h. The concentration at 48 h ([2]; 60 mg, 60 mg QOD (n = 9), Day 27, geometric mean (coefficient of variation), read-out: C48-h Last dose) was 152 nM, the Cmax ([2]; 60 mg, 60 mg QOD (n = 9), Day 27, geometric mean (coefficient of variation), read-out: Cmax Last dose) was 277 nM and the Tmax ([2]; 60 mg, QOD dosing (45 or 60 mg), Japanese patients, read-out: median Tmax) was 4 to 6 h. The AUC(0-t) ([2]; 135 mg, 135 mg QW (n = 3), Day 1, AUC0–168h, geometric mean (coefficient of variation), read-out: AUCt First dose) was 9.68 µM·h, the concentration at 48 h ([2]; 135 mg, 135 mg QW (n = 3), Day 1, geometric mean (coefficient of variation), read-out: C48-h First dose) was 83.2 nM and the Cmax ([2]; 135 mg, 135 mg QW (n = 3), Day 1, geometric mean (coefficient of variation), read-out: Cmax First dose) was 234 nM. For the same compound, the AUC(0-t) ([2]; 135 mg, 135 mg QW (n = 3), Day 22, AUC0–168h, geometric mean (coefficient of variation), read-out: AUCt Last dose) was 12.8 µM·h, the concentration at 48 h ([2]; 135 mg, 135 mg QW (n = 3), Day 22, geometric mean (coefficient of variation), read-out: C48-h Last dose) was 104 nM and the Cmax ([2]; 135 mg, 135 mg QW (n = 3), Day 22, geometric mean (coefficient of variation), read-out: Cmax Last dose) was 244 nM. The AUC(0-t) ([2]; 135 mg, 135 mg QW, Day 22, read-out: AUC0–48h) was 12.8 µM·h, the AUC(0-t) ([2]; 200 mg, 200 mg QW (n = 9), Day 1, AUC0–168h, geometric mean (coefficient of variation), read-out: AUCt First dose) was 24.3 µM·h and the concentration at 48 h ([2]; 200 mg, 200 mg QW (n = 9), Day 1, geometric mean (coefficient of variation), read-out: C48-h First dose) was 186 nM. It also gave a Cmax ([2]; 200 mg, 200 mg QW (n = 9), Day 1, geometric mean (coefficient of variation), read-out: Cmax First dose) of 439 nM, an AUC(0-t) ([2]; 200 mg, 200 mg QW (n = 9), Day 22, AUC0–168h, geometric mean (coefficient of variation), read-out: AUCt Last dose) of 37.6 µM·h and a concentration at 48 h ([2]; 200 mg, 200 mg QW (n = 9), Day 22, geometric mean (coefficient of variation), read-out: C48-h Last dose) of 302 nM. For the same compound, the Cmax ([2]; 200 mg, 200 mg QW (n = 9), Day 22, geometric mean (coefficient of variation), read-out: Cmax Last dose) was 571 nM, the Tmax ([2]; 200 mg, 200 mg QW (n = 9), Day 22, median (min–max), read-out: Tmax Last dose) was 5 h and the AUC(0-t) ([2]; 200 mg, 200 mg QW, Day 22, read-out: AUC0–48h) was 37.6 µM·h. It also gave a Tmax ([2]; 200 mg, QW dosing (135 and 200 mg), Japanese patients, read-out: median Tmax) of 4 to 6 h, a half-life ([2]; 60 mg QOD (n = 9), harmonic mean ± pseudo SD) of 71.8 ± 8.9 h and a half-life ([2]; 135 mg QW (n = 3), harmonic mean ± pseudo SD) of 69.3 ± 8.9 h. For the same compound, the half-life ([2]; 200 mg QW (n = 9), harmonic mean ± pseudo SD) was 75.6 ± 9.7 h, the “potency on AKT3 activity relative to AKT1” value (AKT3 [3]) was “two to sixfold less potently” and the AKT pathway blockade (AKT pathway) was “Significant AKT pathway blockade”. The anti-tumor activity [4] was “showed anti-tumor activity”, the IC50 (AKT1 kinase activity) was about 20 nM and the IC50 (AKT1) was […]. For the same compound, the “patients who experienced a DLT” value ([5]; 60 mg QOD, grade 3 skin rash) was “One of 20”, the “patients who experienced a DLT, percent” value ([5]; 60 mg QOD) was 5.0% and the “patients who experienced DLTs” value ([5]; 200 mg QW, grade 3 skin rash (three), grade 3 dermatitis acneiform (one)) was “Four of 17”. The “patients who experienced DLTs, percent” value ([5]; 200 mg QW) was 23.5%, the “maximum tolerated dose (MTD)” value ([5]; QOD dosing schedule) was 60 mg/day and the “maximum tolerated dose (MTD)” value ([5]; QW dosing schedule) was 200 mg/day. The IC50 (AKT2 [6]) was 12 nM, the “tumor responses (RECIST 1.0)” value (advanced solid tumors; 24 patients evaluated) was “no tumor responses” and the “patients with SD lasting longer than 4 months” value (advanced solid tumors; all cohorts) was 6 of the 24. The “patients with SD lasting longer than 4 months, percent” value (advanced solid tumors; all cohorts) was 25%, the “patients with SD for 6 months or longer” value (advanced solid tumors; one mediastinal tumor, one esophageal cancer) was “two patients” and the “patients with stable disease (SD) for 4 months or longer” value (advanced solid tumors; two cervical cancer, one leiomyosarcoma, one breast cancer) was “Four patients”. For the same compound, the “apparent terminal half-life (t½)” value [7] was 60 to 90 h, the terminal elimination half-life [7] was 60 to 80 h and the “potency on AKT2 activity relative to AKT1” value (AKT2 [8]) was “two to sixfold less potently”.
